How the values were obtained:
LDL = experiment: Cu(II)-induced formation of conjugated dienes in LDL isolated from plasma pre-incubated with the test substance (lag phase); format: biochemical; conditions: FIG. 2
Description: In-vitro LDL oxidation is a common model for testing various substances for their antioxidant properties because they accumulate in the LDL in vitro due to pre-incubation of the plasma with (primarily lipophilic) test substances (McLean und Hagaman, 1989, Biochemistry 28(1); pp. 321-327, Esterbauer et al, 1991b, Am. J. Clin. Nutr. 53, pp. 315S-321S). After accumulation, the influence of these substances on the oxidability of LDL can be studied.
Continuous measurement of the formation of conjugated dienes in LDL is an accepted method of comparing oxidizability of the lipid portion of various LDL samples (Esterbauer et al. 1989, Free Rad. Res. Comms. 6(1), pp. 67-75; Parthasarathy et al. 1998, Free Rad. Res. 28, pp. 583-591). […] The study was to find out whether accumulation of lemon oil or γ-terpinene in LDL can protect the LDL from Cu(II)-induced oxidation.
In another test, blood plasma was incubated with 0.5, 0.25, 0.1 and 0.01% γ-terpinene and the LDL isolated from it was tested for resistance against cooper-induced oxidation.

[1] = system: tryptophane residues in apo B-100 of LDL; experiment: Cu(II)-induced loss of tryptophane fluorescence in LDL; format: biochemical; conditions: FIG. 5
Text: Oxidation of HDL or LDL with Cu(II) goes along with a reduction of the tryptophane residues (Reyftmann et al., 1990, Biochim. Biophys. Acta 1042, pp. 159-167), which can be observed by measuring fluorescence. After adding Cu(II) to an LDL solution, fluorescence initially drops within a few seconds due to quenching effects caused by copper. […] The time before the slower phase changes into the faster phase can be defined as the lag phase, just like with diene conjugation. (Giessauf et.al., 1995, Biochim. Biophys. Acta 1256, pp. 221-232). The faster decline in fluorescence starts about at the same time as the propagation phase of diene conjugation and is most likely based on a reaction of lipid peroxidation products with tryptophane residues. We used this test system, too, to find out whether the accumulation of lemon oil or γ-terpinene in LDL influences the Cu(II)-induced loss of tryptophane fluorescence.

In the case of `CC1=CCC(C(C)C)=CC1` [γ-terpinene], the “lag phase of conjugated diene formation” value (LDL; 0.01% γ-terpinene in the plasma) is reported as “clearly extended”, the “extension of the lag phase of conjugated diene formation” value (LDL; 0.1% γ-terpinene in the plasma) is reported as “about 250 minutes” and the “time without reaching the propagation phase” value (LDL; higher concentrations in the plasma (0.25 and 0.5% γ-terpinene)) is reported as greater than 500 min. The “lag phase of conjugated diene formation” value (LDL; plasma incubated with 0.5, 0.25, 0.1 and 0.01% γ-terpinene, copper-induced oxidation) was “expands depending on concentration”, the “oxidation of tryptophane residues in LDL” value ([1]; 0.5% of γ-terpinene in the plasma) was “almost completely prevents” and the “early protein oxidation (loss of tryptophane fluorescence)” value ([1]; LDL enriched with γ-terpinene) was “slows down”.

— patent US20040047922A1, “Preparation with vascular protective and anti-oxidative effect and use thereof” (priority 2000, published 2004)
